# Where two headings read alike, the source gives them in different places.
# Key:
# [1] = RLM, NADPH, after 30 min; ref Wiese et al., 2016; cited from earlier work
# [2] = Incubation of (S)-1 with HLM (NADPH, UDPGA) and detection of metabolites by LC-MS/MS; assay type: in vitro ADME, human; conditions: 37°C, 120 min, LC-MS/MS (MRM)
# Method: In the following, the final concentrations are provided in brackets. For incubations of (S)-[^18F]1 together with (S)-1 under conditions for oxidation and glucuronidation, a solution of (S)-1 of 0.1 mg/mL (2 μM) in acetonitrile was put into test tubes and the solvent was evaporated using the DB-3D TECHNE Sample Concentrator (Biostep) at room temperature under a stream of nitrogen. HLM (1 mg/mL) and alamethicin (50 μg/mL, from methanolic solution) were mixed ([Fisher et al., 2000]), kept on ice for 15 min and added to the test tubes. PBS, ∼5 MBq (S)-[^18F]1 in 20 μL PBS, and MgCl2 (2 mM) were added, mixed vigorously and the mixture was pre-incubated at 37°C for 3 min. After addition of analogously pre-incubated NADPH (2 mM) and UDPGA (5 mM), the incubations were continued by gentle shaking at 37°C for 120 min using the BioShake iQ (QUANTIFOIL Instruments). After termination by adding 1.0 mL of cold acetonitrile (-20°C) and vigorous mixing for 30 s, the mixtures were stored at 4°C for 5 min. […]
# For selective detection of metabolites, MRM transitions, which covered products of, e.g., debenzylation, defluorination, single, and multiple oxygenations as well as single and multiple glucuronidation of (S)-1 or its intermediate metabolites, were monitored. After incubation of (S)-1 with HLM in presence of NADPH a series of metabolites (M1–M10) could be detected (Figure 4 and Table 1).
# [3] = Time- and concentration-dependent microsomal transformation of (S)-[^18F]1 (HLM, NADPH, radio-HPLC); assay type: in vitro ADME, human; conditions: 37°C; for unchanged radioligand: after 30 min incubation; for time at which 50% of unchanged (S)-[^18F]1 could be detected: HLM
# Method: Respective amounts of a solution of (S)-1 of 0.1 mg/mL [<1 μM (referring to estimated molar activity; no addition of carrier), 2, and 20 μM] in acetonitrile were put into test tubes and the solvent was evaporated using the DB-3D TECHNE Sample Concentrator (Biostep, Jahnsdorf, Germany) at room temperature under a stream of nitrogen. PBS and HLM (1 mg/mL) and ∼5 MBq (S)-[^18F]1 (molar activity: 17 GBq/μmol, at the start of incubations) in 100 μl PBS were added, mixed vigorously, and pre-incubated at 37°C for 3 min. Analogously pre-incubated NADPH (2 mM) was added and mixtures were shaken gently at 37°C using the BioShake iQ (QUANTIFOIL Instruments, Jena, Germany). After 0, 2, 5, 10, 15, 20, 30, 40, 50, and 60 min, samples of 20 μL were taken and added to 80 μL cold acetonitrile (-20°C), followed by vigorous shaking (30 s), cooling on ice (4 min), and centrifugation at 14,000 rpm (10 min). Supernatants (90 μL) were diluted with water (30 μL) and immediately analyzed by radio-HPLC (system II).
# System II: Analyses of samples from microsomal incubations to determine time and concentration dependency of microsomal transformation were performed on a JASCO X-LC system (JASCO Labor- und Datentechnik) equipped with a UV/Vis detector UV-2070 (monitoring at 210 nm) and a radioactivity flow detector GABI Star (raytest Isotopenmessgeräte, Straubenhardt, Germany) including NaI detector (2 × 2″ pinhole, 16 mm × 30 mm). […] The isocratic solvent system consisted of water/acetonitrile 40:60 (v/v), containing NH4OAc (20 mM). Unchanged (S)-[^18F]1 eluted at a retention time of 4.1 min, whilst formed radiometabolites eluted at 0.6–2.2 min. The percentages of unchanged (S)-[^18F]1 were calculated from HPLC data as follows: Fraction of (S) - [^18F]1(%) = Peak area(S)-[18F]1/(Peak area(S)-[18F]1 + Peak arearadiometabolites) × 100%
# In order to obtain basic information about the metabolic stability in vitro, the time course of the degradation of (S)-[^18F]1 was investigated in presence of different concentrations of (S)-1 [no-carrier-added (n.c.a., <1 μM) and carrier-added: 2 and 20 μM]. For that purpose, incubations were performed in PBS with HLM and NADPH at 37°C. At defined time points (until 60 min) samples were taken and added to cold acetonitrile to terminate the incubations. After centrifugation, the fractions of remaining (S)-[^18F]1 were determined by radio-HPLC.
# [4] = parameters: method as in Wiese et al., 2016; conditions: mouse plasma, 30 min post injection; ref Wiese et al., 2016; cited from earlier work
# [5] = parameters: method as in Wiese et al., 2016; conditions: mouse brain, 60 min post injection; ref Wiese et al., 2016; cited from earlier work
# [6] = rhesus monkey, in vivo; cited from earlier work
# [7] = in vivo, cited from earlier work
# [8] = human, in vivo
# Method: After injection of 244.6-290.4 MBq (mean: 265.5 MBq) of (S)-[^18F]1 into 8 healthy controls arterial blood samples (∼16 mL) were withdrawn at 10, 20, and 30 min. […] After 90 or 120 min, urine (∼8 mL) was collected and stored on ice. Plasma was obtained by centrifugation of blood samples at 7,000 rpm (UNIVERSAL 320 R, Hettich, Germany) for 7 min. Protein precipitation and extraction with acetonitrile was conducted as follows. Method A: 10 × 1.6 mL cold acetonitrile (-35°C) were added to 10 × 400 μL plasma, shaken for 3 min, cooled at 4°C for 5 min and centrifuged at 7,000 rpm (Eppendorf Centrifuge 5424) for 5 min. Supernatants were collected and the precipitates were extracted with 1.6 mL acetonitrile each. The combined supernatants were concentrated at 70°C under a flow of nitrogen (Sample Concentrator DB-3D TECHNE) to provide residual volumes of 40–70 μL, which were reconditioned by adding water to obtain samples of 100 μL, which were immediately analyzed by radio-HPLC (system I). Method B: similar to method A, using 2 × 8 mL cold acetonitrile (-35°C) and 2 × 2 mL plasma. After centrifugation, the precipitates were extracted with 2 × 4 mL acetonitrile.
# System I: Analyses were performed on a JASCO LC-2000 system (JASCO Labor- und Datentechnik, Gross-Umstadt, Germany) including a UV-2070 UV–VIS detector (monitoring at 210 nm) online with a GABI Star radioactivity flow detector (raytest Isotopenmessgeräte, Straubenhardt, Germany) with a NaI detector (2 × 2″ pinhole, 16 mm × 30 mm). Chromatographic separations were achieved using a Multospher 120 RP 18 AQ-5μ-column, 250 mm × 4.6 mm, 5 μm, including pre-column, 10 mm × 4 mm (CS-Chromatographie Service, Langerwehe, Germany). The solvent system consisted of eluent A: water/acetonitrile, 95:5 (v/v), containing NH4OAc (20 mM) and eluent B: water/acetonitrile, 20:80 (v/v), containing NH4OAc (20 mM). […]
# Urine samples, taken after 90 or 120 min post injection were measured by radio-HPLC without further preparation.
# [9] = tested on: β-glucuronidase (Helix pomatia type H-3); assay: β-Glucuronidase cleavage of microsomal-formed metabolite M12; assay type: in vitro ADME; conditions: acetate buffer pH 4.5–5.0, 37°C, 2 h; M5 the only product observed
# Method: In order to investigate the cleavage of formed glucuronides (see section “β-Glucuronidase Cleavage of Microsomal-Formed Metabolite M12”), microsomal incubation of (S)-1 was performed in quadruplicate with higher amounts of the substrate and the reagents as follows (final concentrations in brackets): (S)-1 (200 μM), HLM (2 mg/mL), NADPH (4 mM), MgCl2 (5 mM), alamethicin (0.1 mg/mL), UDPGA (10 mM). After addition of acetonitrile, resulting mixtures were combined and further processing was proceeded as described above. The obtained sample was separated chromatographically using the HPLC system I (Section “Radio-HPLC”) with UV monitoring at 210 nm. […]
# To 10 μL of a solution of metabolite M12 (Section “Incubation of (S)-[^18F]1 and Non-radioactive References for Identification of in vitro Metabolites and Radiometabolites”), 32 μL acetate buffer (NaOAc/AcOH, 100 mM, pH 4.5–5.0), and 8 μL β-glucuronidase from Helix pomatia Type H-3 (aqueous solution, ≥90,000 units/mL, final: ≥14,400 units/mL) were added. […] After centrifugation at 14,000 rpm (Eppendorf Centrifuge 5424) for 15 min, 40 μL of the supernatant was diluted with 60 μL of water and analyzed by LC-MS/MS monitoring the MRM transitions m/z 518.2/342.2 (as for glucuronides of mono-oxygenated metabolites, e.g., M12) and 342.2/91.1 (as for mono-oxygenated metabolites, e.g., M5).
# [10] = HLM 1 mg/mL, PBS, n.c.a. (<1 μM)
smiles,measurement,setting,value
"FCCC1OC2(CCN(Cc3ccccc3)CC2)c2ccccc21 (racemic) [rac-1, racemic fluspidine]",stability (intact compound),[1],~13%
"FCC[C@@H]1OC2(CCN(Cc3ccccc3)CC2)c2ccccc21 [(S)-1, 1′ -benzyl-3-(2-fluoroethyl)-3H-spiro[2-benzofuran-1,4′ -piperidine]]",defluorination,[2],not observed
same,unchanged radioligand,[3]; [10],14%
"[17F]CCC1OC2(CCN(Cc3ccccc3)CC2)c2ccccc21 (racemic) [rac-[^18F]1, racemic [^18F]fluspidine]",fraction of unchanged rac-[^18F]1 in plasma,[4],89 ± 3%
same,unchanged radioligand in brain,[5],98%
"[18F]CC[C@@H]1OC2(CCN(Cc3ccccc3)CC2)c2ccccc21 [(S)-[^18F]1, (S)-[^18F]fluspidine]",fraction of the total activity in plasma,[6],50%
same,radioligand remained unchanged in plasma,[7]; 16 min,48%
same,radioligand remained unchanged in plasma,[7]; 0.5 h,37%
same,unchanged radioligand,[3]; [10],14%
same,unchanged (S)-[^18F]1,"[3]; HLM 1 mg/mL, PBS, n.c.a. (<1 μM), after 60 min",3%
same,time at which 50% of unchanged (S)-[^18F]1 could be detected,[3]; 2 μM added (S)-1,10 min
same,time at which 50% of unchanged (S)-[^18F]1 could be detected,[3]; 20 μM added (S)-1,17 min
same,time at which 50% of unchanged (S)-[^18F]1 could be detected,[3]; n.c.a. (<1 μM),10 min
same,Fraction of (S)-[^18F]1 of the total activity in urine,[8],0.0–7.9%
same,Fraction of (S)-[^18F]1 in urine,[8]; 90 min,2.6%
same,Fraction of (S)-[^18F]1 in urine,[8]; 120 min,2.5%
O=C(O)[C@H]1OC(OC(CF)[C@@H]2OC3(CCN(Cc4ccccc4)CC3)c3ccccc32)[C@H](O)[C@@H](O)[C@@H]1O (some centres unmarked) [M12],cleavage by β-glucuronidase,[9],cleaved completely
